The record followed here is publication PMC7277541, “Antimicrobial and Antifungal Activities of Terpene-Derived Palladium Complexes” (Antibiotics, 2020).

Series [1] relates to human red blood cells (HRBC). The series can be described thus: Haemolysis assay. The series is classed as cell-based. The note with it: 1 h at 37 °C. The protocol: (§1) All screened compounds were > 95% purity as determined by NMR. Dry compounds were dissolved in dimethyl sulfoxide (DMSO), and serially diluted 2-fold to produce an 8-point dose response with DMSO/water and then added into microtiter plates with a final DMSO concentration of 0.5%, providing a concentration range of 0.25 to 32 μg/mL. Screening against bacteria and yeasts for antimicrobial activity and toxicity against mammalian cells was performed in duplicate (n = 2).
Hemolytic activity was assessed against human red blood cells (HRBC), with data presented as HC10, corresponding to the concentration of the compound causing 10% hemolysis. Human whole blood (Australian Red Cross) was washed three times with 3 volumes of 0.9% NaCl and resuspended in a concentration of 0.5 × 10^8 cells/mL, determined by manual cell count in a Neubauer hemocytometer. Washed cells were added to compound containing plates (384-well polypropylene plates (PP); Corning 3657) for a final volume of 50 μL. The plate was shaken with incubation for 1 h at 37 °C. After incubation, the plates were centrifuged at 1000× g for 10 min to pellet cells and debris. Supernatant (25 μL) was then transferred to reading plates (384-well, polystyrene plated (PS), Corning CLS3680), with hemolysis determined by measuring the supernatant absorbance at […] (OD405), using cells without inhibitors as negative control and cells with 1% Triton X-100 (Sigma T8787) as positive control. HC10 and HC50 (concentration at 10% and 50% hemolysis, respectively) were calculated by curve fitting the inhibition values vs. log(concentration) using a sigmoidal dose-response function with variable fitting values for top, bottom and slope. Melittin (Sigma M2272) was used as positive hemolytic control on each plate. Human blood was sourced from the Australian Red Cross Blood Service. Selectivity indices (SI) were calculated by dividing the HC10 value (μg/mL) by the MIC value (μg/mL) for a given bacterial or fungal strain.

In a further series the test system is C. albicans ATCC 90028. Briefly: Antifungal MIC assay, C. albicans. As to conditions: YNB, 35 °C, 36 h, growth inhibited ≥ 80%; range tested 0.25 to 32 μg/mL; n = 2. The series is classed as cell-based, Candida albicans. The procedure: as §1
For the fungal assays, yeast strains C. neoformans var. grubii H99 ATCC 208821 and C. albicans ATCC 90028 were cultured for 3 days on Yeast Extract-Peptone Dextrose (YPD; Becton Dickinson 242720) agar at 30 °C. A yeast suspension of 1 × 10^6 to 5 × 10^6 CFU/mL (as determined by OD530) was prepared from five colonies form the agar plates, and subsequently diluted with Yeast Nitrogen Base media (YNB; Becton Dickinson 233520), and added to each well of the compound containing plates (384-well plates, NBS; Corning CLS3640) giving a final cell density of 2.5 × 10^3 CFU/mL and a total volume of 50 μL. Plates were covered and incubated at 35 °C for 36 h without shaking. Growth inhibition of C. albicans was determined measuring absorbance at 630 nm (OD630), while the growth inhibition of C. neoformans was determined measuring the difference in absorbance between 600 and 570 nm (OD600-570), after the addition of resazurin (0.001% final concentration; Sigma R7017) and incubation at 35 °C for 2 h, using media only as negative control and fungi without inhibitors as positive control. MIC values were determined as the lowest concentration at which the growth was inhibited at ≥ 80% (equivalent to no visible growth by eye). Fluconazole (Sigma Aldrich, F8929) was used as a positive inhibitor control on each plate for both strains.

For series [2], the system named is S. aureus (MRSA) ATCC 43300. The series can be described thus: Antibacterial MIC assay, S. aureus (MRSA). The series is classed as cell-based, Staphylococcus aureus. As to conditions: CAMHB, 18 h, growth inhibited by ≥ 80%, range tested 0.25 to 32 μg/mL, n = 2. The procedure:
Dry compounds were dissolved in dimethyl sulfoxide (DMSO), and serially diluted 2-fold to produce an 8-point dose response with DMSO/water and then added into microtiter plates with a final DMSO concentration of 0.5%, providing a concentration range of 0.25 to 32 μg/mL. Screening against bacteria and yeasts for antimicrobial activity and toxicity against mammalian cells was performed in duplicate (n = 2).
For the bacterial assays, each bacterial strain was cultured in Cation-Adjusted Mueller Hinton Broth (CAMHB; Bacto Laboratories 212322) at 37 °C overnight. Bacterial strains tested were methicillin resistant S. aureus (methicillin-resistant Staphylococcus aureus - MRSA) ATCC 43300, E. coli ATCC 25922, K. pneumoniae K6/ESBL ATCC 700603, P. aeruginosa ATCC 27853, A. baumannii ATCC 19606. A sample of each culture was then diluted 40-fold in fresh CAMHB and incubated at 37 °C for 1.5–3 h. The resultant mid-log phase cultures were diluted with CAMHB (CFU/mL measured by OD600), then added to each well of the compound-containing plates (384-well non-binding surface (NBS) plates; Corning CLS3640), giving a final cell density of 5 × 10^5 CFU/mL and a total volume of 50 μL. Plates were covered and incubated at 37 °C for 18 h without shaking. Inhibition of bacterial growth was determined by measuring absorbance at 600 nm (OD600), using media only as negative control and bacteria without inhibitors as positive control. MIC values were determined as the lowest concentration at which the growth was inhibited by ≥ 80% (equivalent to no visible growth by eye). Colistin sulfate (Sigma Aldrich, Castle Hill, Australia C4461) and vancomycin HCl (Sigma Aldrich, 861987) were used as positive inhibitor controls on each plate for Gram-negative and Gram-positive bacteria, respectively.

The subject of series [3] is C. neoformans var. grubii H99 ATCC 208821. The series can be described thus: Antifungal MIC assay, C. neoformans. The series is classed as cell-based, Cryptococcus neoformans. As to conditions: YNB, 35 °C, 36 h, resazurin, growth inhibited ≥ 80%, range tested 0.25 to 32 μg/mL, n = 2. The procedure:
Screening against bacteria and yeasts for antimicrobial activity and toxicity against mammalian cells was performed in duplicate (n = 2). […] Becton Dickinson 242720) agar at 30 °C. A yeast suspension of 1 × 10^6 to 5 × 10^6 CFU/mL (as determined by OD530) was prepared from five colonies form the agar plates, and subsequently diluted with Yeast Nitrogen Base media (YNB; Becton Dickinson 233520), and added to each well of the compound containing plates (384-well plates, NBS; […] Plates were covered and incubated at 35 °C for 36 h without shaking. […] Fluconazole (Sigma Aldrich, F8929) was used as a positive inhibitor control on each plate for both strains.

Series [4] relates to human embryonic kidney cells (HEK293, ATCC CRL-1573). The series can be described thus: Cytotoxicity assay (resazurin). As to conditions: HEK293, 20 h incubation. The series is classed as cell-based. The procedure: (§2) Screening against bacteria and yeasts for antimicrobial activity and toxicity against mammalian cells was performed in duplicate (n = 2). […] HEK293 cells were counted manually in a Neubauer hemocytometer and added to compound-containing plates (384-well plates, tissue culture treated (TC); Corning CLS3712) giving a final density of 5000 cells/well in a total volume of 50 μL, using Dulbecco's Modified Eagle Medium (DMEM; Life Technologies 11995-073) with 10% Fetal Bovine Serum (FBS; GE SH30084.03). […] Sigma R7017) and after further incubation for 3 h at 37 °C in 5% CO2. Media only was used as negative control and cells without inhibitors as positive growth control. CC50 (concentration at 50% cytotoxicity) values were calculated by curve fitting the inhibition values vs. log(concentration) using a sigmoidal dose-response function, with variable fitting values for bottom, top and slope. Tamoxifen (Sigma Aldrich, Australia T5648) was used as positive inhibitor control on each plate. Selectivity indices (SI) were calculated by dividing the CC50 value (μg/mL) by the MIC value (μg/mL) for a given bacterial or fungal strain.

A short description of series [5]: Cytotoxicity assay (resazurin). As to conditions: human, HEK293 cells (ATCC CRL-1573), HEK293, 20 h incubation, read-out: CC50 (concentration of 50% cytotoxicity). The series is classed as cell-based, human. The protocol:
as §2

The structures appear in SMILES notation. Converted amounts (≈) assume the structure as drawn.

With `C[C@H](N[C@@H]1C[C@H]2C[C@H](C2(C)C)[C@@]1(C)O)c1cccc[c]1[Pd]([Cl])[P](c1ccccc1)(c1ccccc1)c1ccccc1` [Compound 5, (+)-trans-Chloro{(1R,2R,3R,5R)-3-((S)-1′-phenylethylamino)-2,6,6-trimethylbicyclo[3.1.1]heptane-2-ol-C,N}(triphenylphosphine)palladium(II)], the “HC10 (concentration of 10% haemolysis)” value in series [1] amounted to 5.6 µg/mL. Besides, the “Minimum inhibitory concentration (MIC) C. albicans ATCC 90028” value in the series on C. albicans ATCC 90028 stood at 2 µg/mL. In series [2], the “Minimum inhibitory concentration (MIC) S. aureus ATCC 43300” value turned out to be 16 µg/mL. Also, the “Minimum inhibitory concentration (MIC) C. neoformans ATCC 208821” value in series [3] came out at 1 µg/mL. In series [4], the “CC50 (concentration of 50% cytotoxicity)” value was 2.9 µg/mL.
In the case of `CC/C(=C(\c1ccccc1)c1ccc(OCCN(C)C)cc1)c1ccccc1` [tamoxifen, Tamoxifen, reference compound], in series [5], the CC50 at 20 h turned out to be 9 µg/mL (≈ 24.2 µM).
